Consider 19 molecules from patent US10106534B2 (CELGENE QUANTICEL RESEARCH, INC., priority 2014, dated 2018).

Test [1] concerns the target JMJD3 (Homo sapiens, UniProt O15054). Briefly: In vitro enzyme inhibition assay for JMJD3 activity (TR-FRET). Type of test: biochemical. The method, then:
This assay determines the ability of a test compound to inhibit JMJD3 demethylase activity.
The enzymatic assay of JMJD3 activity is based upon Time Resolved-Fluorescence Resonance Energy Transfer (TR-FRET) detection. […] Reaction product was determined quantitatively by TR-FRET after the addition of detection reagent Phycolink Streptavidin-allophycocyanin (Prozyme) and Europium-anti-di-methylated histone H3 lysine 27 (H3K27me2) antibody (PerkinElmer) in the presence of 5 mM EDTA in LANCE detection buffer (PerkinElmer) at a final concentration of 50 nM and 1 nM, respectively.
The reaction mixture was incubated at room temperature for 30 minutes, and terminated by the addition of 6 μL of 5 mM EDTA in LANCE detection buffer containing 100 nM Phycolink Streptavidin-allophycocyanin and 2 nM Europium-anti-H3K27me2 antibody.
In general terms: TR-FRET usually uses a lanthanide donor and a delayed reading to cut background.

Test [2] deals with JMJD2C (Homo sapiens (Human), UniProt Q9H3R0). Briefly: In vitro enzyme inhibition assay for JMJD2C activity (TR-FRET). Type of test: biochemical. Put shortly: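 Baculovirus JMJD2C (AA 2-372), 0.3 nM, with 300 nM biotin-H3K9me3 peptide and 2 μM α-ketoglutarate in HEPES pH 7.3 containing Fe(II) and ascorbate, 30 min at room temperature, 11-point dilutions. H3K9me2 product by TR-FRET (Eu-antibody/streptavidin-APC, 665/615 ratio); IC50 fitted.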

Test [3] has as its system KYSE-150 esophageal carcinoma cell line. Briefly: In vitro cell-based assay: cellular proliferation via BrdU incorporation (ELISA). Also on record: species or system human. The following applies: Homo sapiens, KYSE-150, 168 hours compound incubation. Put shortly: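 KYSE-150 cells (JMJD2C-amplified; SMAD4 and TP53 mutant), 2,000/well, were treated after overnight attachment with an 11-point series (100 μM to 2 nM) for 168 h. Proliferation was read by BrdU ELISA (2 h labelling, anti-BrdU-peroxidase, TMB, 450 nm) and IC50 fitted.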

Chain of JMJD2C (Q9H3R0 2-372): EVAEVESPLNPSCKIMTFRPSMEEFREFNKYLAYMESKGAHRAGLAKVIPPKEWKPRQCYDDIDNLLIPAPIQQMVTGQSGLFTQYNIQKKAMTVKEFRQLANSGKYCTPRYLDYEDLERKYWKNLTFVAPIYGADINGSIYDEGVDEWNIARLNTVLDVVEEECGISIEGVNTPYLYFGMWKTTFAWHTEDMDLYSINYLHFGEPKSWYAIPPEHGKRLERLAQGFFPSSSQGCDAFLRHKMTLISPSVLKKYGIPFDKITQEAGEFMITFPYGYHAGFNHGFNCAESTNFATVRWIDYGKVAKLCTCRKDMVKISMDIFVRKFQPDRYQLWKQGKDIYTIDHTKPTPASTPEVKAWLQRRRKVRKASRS

In the case of `O=C(O)c1ccncc1NC[C@@H]1CCOc2cc(-c3ccsc3)ccc21` [Example 34, 3-({[(4R)-7-(thiophen-3-yl)-3,4-dihydro-2H-1-benzopyran-4-yl]methyl}amino)pyridine-4-carboxylic acid], the IC50 (commonly the concentration that inhibits the measured activity by half) in test [1] was in the range of 1 to 10 µM; in test [2], 0.1 to 1 µM; in test [3] it was 0.1 to 1 µM.
For the molecule `Cc1ccc(N(C)c2ccc3c(c2)CCC[C@H]3CNc2cnccc2C(=O)O)nc1` [Example 122, 3-({[(1R)-6-[methyl(5-methylpyridin-2-yl)amino]-1,2,3,4-tetrahydronaphthalen-1-yl]methyl}amino)pyridine-4-carboxylic acid], the figures for the IC50 in test [1], in test [2] and in test [3] were 1 to 10 µM, 0.1 to 1 µM and no more than 0.1 µM, respectively.
Turning to `CN(c1ccc(OC(F)F)cc1)c1ccc2c(c1)CCC[C@H]2CNc1cnccc1C(=O)O` [Example 184, 3-({[(1R)-6-{[4-(difluoromethoxy)phenyl](methyl)amino}-1,2,3,4-tetrahydronaphthalen-1-yl]methyl}amino)pyridine-4-carboxylic acid], the half-inhibitory concentration (IC50) in test [1] is 1 to 10 µM; in test [2] it was 0.1 to 1 µM; in test [3], no more than 0.1 µM.
Regarding `O=C(O)c1ccncc1NC[C@@H]1CCOc2cc(Sc3ccc(F)cc3)ccc21` [Example 55, 3-({[(4R)-7-[(4-fluorophenyl)sulfanyl]-3,4-dihydro-2H-1-benzopyran-4-yl]methyl}amino)pyridine-4-carboxylic acid], the IC50 is 1 to 10 µM in test [1], 0.1 to 1 µM in test [2] and 0.1 to 1 µM in test [3].
`CN(c1ccc2c(c1)OCC[C@H]2CNc1cnccc1C(=O)O)c1ccc(C2CC2)cn1` [Example 153, 3-({[(4R)-7-[(5-cyclopropylpyridin-2-yl)(methyl)amino]-3,4-dihydro-2H-1-benzopyran-4-yl]methyl}amino)pyridine-4-carboxylic acid]: the results for the IC50 in test [1], in test [2] and in test [3] were 1 to 10 µM, 0.1 to 1 µM and no more than 0.1 µM, respectively.
On to `Cc1sccc1-c1ccc2c(c1)OCC[C@H]2CNc1cnccc1C(=O)O` [Example 37, 3-({[(4R)-7-(2-methylthiophen-3-yl)-3,4-dihydro-2H-1-benzopyran-4-yl]methyl}amino)pyridine-4-carboxylic acid], for which the values for the IC50 in test [1], in test [2] and in test [3] were 1 to 10 µM, 1 to 10 µM and 0.1 to 1 µM, respectively.
Take `COc1ccc2c(c1C)CCC[C@H]2CNc1cnccc1C(=O)O` [Example 99, 3-({[(1R)-6-methoxy-5-methyl-1,2,3,4-tetrahydronaphthalen-1-yl]methyl}amino)pyridine-4-carboxylic acid]: the values for the IC50 in test [1], in test [2] and in test [3] were 0.1 to 1 µM, 0.1 to 1 µM and 1 to 10 µM, respectively.
As for `CC(C)c1ccc(N(C)c2ccc3c(c2)OCC[C@H]3CNc2cnccc2C(=O)O)cc1` [Example 187, 3-({[(4R)-7-{methyl[4-(propan-2-yl)phenyl]amino}-3,4-dihydro-2H-1-benzopyran-4-yl]methyl}amino)pyridine-4-carboxylic acid], the IC50 was 1 to 10 µM in test [1], 0.1 to 1 µM in test [2] and no more than 0.1 µM in test [3].
On to `CCc1ccc(N(C)c2ccc3c(c2)OCC[C@H]3CNc2cnccc2C(=O)O)cc1` [Example 154, 3-({[(4R)-7-[(4-ethylphenyl)(methyl)amino]-3,4-dihydro-2H-1-benzopyran-4-yl]methyl}amino)pyridine-4-carboxylic acid], for which the values for the half-maximal inhibitory concentration (IC50) in test [1], in test [2] and in test [3] were 1 to 10 µM, 0.1 to 1 µM and no more than 0.1 µM, respectively.
With `O=C(O)c1ccncc1NCC1CCCc2nc(-c3ccccc3)ccc21` (stereo not drawn) [Example 25], the results for the IC50 in test [1], in test [2] and in test [3] were 0.1 to 1 µM, 0.1 to 1 µM and greater than 10 µM, respectively.
`CN(c1ccc(N2CCC2)cc1)c1ccc2c(c1)OCC[C@H]2CNc1cnccc1C(=O)O` [Example 183, 3-({[(4R)-7-{[4-(azetidin-1-yl)phenyl](methyl)amino}-3,4-dihydro-2H-1-benzopyran-4-yl]methyl}amino)pyridine-4-carboxylic acid]: the IC50 was 1 to 10 µM in test [1], 0.1 to 1 µM in test [2] and no more than 0.1 µM in test [3].
In the case of `CCOc1ccc(N(C)c2ccc3c(c2)CCC[C@H]3CNc2cnccc2C(=O)O)cc1` [Example 185, 3-({[(1R)-6-[(4-ethoxyphenyl)(methyl)amino]-1,2,3,4-tetrahydronaphthalen-1-yl]methyl}amino)pyridine-4-carboxylic acid], the values for the 50% inhibitory concentration (IC50) in test [1], in test [2] and in test [3] were 1 to 10 µM, 0.1 to 1 µM and no more than 0.1 µM, respectively.
In the same order, the values of `CN(c1ccccc1)c1ccc2c(c1)CCC[C@H]2CNc1nnccc1C(=O)O` [Example 191, 3-({[(1R)-6-[methyl(phenyl)amino]-1,2,3,4-tetrahydronaphthalen-1-yl]methyl}amino)pyridazine-4-carboxylic acid] are 1 to 10 µM, 0.1 to 1 µM and no more than 0.1 µM.
`CN(c1ccccc1)c1ccc2c(c1)OCC[C@H]2CNc1cnccc1C(=O)O` [Example 18, 3-({[(4R)-7-[methyl(phenyl)amino]-3,4-dihydro-2H-1-benzopyran-4-yl]methyl}amino)pyridine-4-carboxylic acid]: the IC50 was 0.1 to 1 µM in test [1], 0.1 to 1 µM in test [2] and no more than 0.1 µM in test [3].
With `CN(c1ccc(OC(F)F)cc1)c1ccc2c(c1)OCC[C@H]2CNc1cnccc1C(=O)O` [Example 190, 3-({[(4R)-7-{[4-(difluoromethoxy)phenyl](methyl)amino}-3,4-dihydro-2H-1-benzopyran-4-yl]methyl}amino)pyridine-4-carboxylic acid], the IC50 in test [1] was 1 to 10 µM; in test [2], 0.1 to 1 µM; in test [3] it was no more than 0.1 µM.
As to `CN(c1ccc(CC(F)(F)F)cc1)c1ccc2c(c1)OCC[C@H]2CNc1cnccc1C(=O)O` [Example 192, 3-({[(4R)-7-{methyl[4-(2,2,2-trifluoroethyl)phenyl]amino}-3,4-dihydro-2H-1-benzopyran-4-yl]methyl}amino)pyridine-4-carboxylic acid], the IC50 in test [1] was 1 to 10 µM; in test [2] it was 0.1 to 1 µM; in test [3] it was no more than 0.1 µM.
In the case of `CN(c1ccc(O)cc1)c1ccc2c(c1)CCC[C@H]2CNc1cnccc1C(=O)O` [Example 165, 3-({[(1R)-6-[(4-hydroxyphenyl)(methyl)amino]-1,2,3,4-tetrahydronaphthalen-1-yl]methyl}amino)pyridine-4-carboxylic acid], the IC50 in test [1] was in the range of 1 to 10 µM; in test [2], 0.1 to 1 µM; in test [3], 1 to 10 µM.
For the molecule `CN(c1cccc(F)c1)c1ccc2c(c1)OCC[C@H]2CNc1cnccc1C(=O)O` [Example 20, 3-({[(4R)-7-[(3-fluorophenyl)(methyl)amino]-3,4-dihydro-2H-1-benzopyran-4-yl]methyl}amino)pyridine-4-carboxylic acid], the IC50 is 1 to 10 µM in test [1], 0.1 to 1 µM in test [2] and no more than 0.1 µM in test [3].
Turning to `Cc1ccc(Oc2ccc3c(c2)CCC[C@H]3CNc2cnccc2C(=O)O)c(F)c1` [Example 66, 3-({[(1R)-6-(2-fluoro-4-methylphenoxy)-1,2,3,4-tetrahydronaphthalen-1-yl]methyl}amino)pyridine-4-carboxylic acid], the IC50 in test [1] was 1 to 10 µM; in test [2], 0.1 to 1 µM; in test [3], no more than 0.1 µM.
